Data: patent US20030176381A1, “Hyaluronic acid in the treatment of cancer” (priority 2002, published 2003)

Columns and labels:
B16F1 tumors [1] = assay: Example 16: HA, CIS, 5-FU on B16F1 tumors in mice; type: in vivo, female C57BL/6 mice; settings: vs Group 1 (saline); intravenously day 0 and at 3 day intervals for 4 weeks; HA 0.16-16.0 mg/kg, CIS 0.01-1.0 mg/kg or 5-FU 1.0-100.0 mg/kg
Protocol: Effect of saline, HA, CIS, 5-FU, HA+CIS and HA+5-FU on B16F1 tumors in mice 5 B16F1 cancer cells are implanted subcutaneously into 224 female C57BL/6 mice. The mice are divided into 28 groups of 8 mice (Table 16).
(§1) Saline, HA, CIS, 5-FU, HA+CIS and HA+5FU are administered intravenously in saline on day 0 and at 3 day intervals for 4 weeks (10 injections) at which time the mice are sacrificed and tumor mass and number of metastases are determined.

PC3 tumors [2] = assay: Example 14: HA, CIS, 5-FU on PC3 tumors in mice; type: in vivo, male nude BALB/c mice; settings: vs Group 1 (saline); intravenously day 0 and at 3 day intervals for 4 weeks; HA 0.16-16.0 mg/kg, CIS or 5-FU 0.1-10.0 mg/kg
Protocol: PC-3 cancer cells are implanted subcutaneously into 224 male nude BALB/c mice. The mice are divided into 28 groups of 8 mice (Table 14).
as §1

LNCaP tumors (CD44 null) [3] = assay: Example 15: HA, CIS, 5-FU on LNCaP tumors in mice; type: in vivo, male nude BALB/c mice; settings: vs Group 1 (saline); intravenously day 0 and at 3 day intervals for 4 weeks; HA 0.16-16.0 mg/kg, CIS or 5-FU 0.1-10.0 mg/kg
Protocol: Effect of saline, HA, CIS, 5-FU, HA+CIS andHA+5-FU on LNCaP tumors in mice LNCaP cancer cells (CD44 null) are implanted subcutaneously into 224 male nude BALB/c mice. The mice are divided into 28 groups of 8 mice (Tablel5).
Saline, HA, CIS, 5-FU, HA+CIS and HA+5FU are administered intravenously in saline on day 0 and at 3 day intervals-for 4 weeks-(1IOinjections) at which time the mice are sacrificed and tumor mass and number of metastasis are determined.

[4] = tested on: MCF-7 human breast cancer cells; assay: MTT cell proliferation, MCF-7; type: cell-based; settings: Homo sapiens, MCF7, 5-FU at 10 μg/ml alone (saline instead of HA)
Protocol: (§2) Cell proliferation was measured using dimethylthiazoldiphenyltetrazolium (MTT) reduction (Mosman et al. J. Immunol. Methods 65:55, 1983). Unless otherwise stated, 100 Al of 5 mg of MTT (Sigma-Aldrich, St. Louis, Mo., USA) dissolved in 1 ml of PBS was added into each well. After 4 h, medium was removed from each well, 1.0 ml of acid-isopropanol (0.04 N HCI in isopropanol) was added and reduced MTT was solubilized by mixing. Absorbency of the reaction product was measured at a wavelength of 570 nm using a multiplate spectrophotometer reader (Elx800 Model, Bio-TEK Instruments Inc., Winooski, Vt., USA).
(§3) Unless stated otherwise 1.0 x 10^5 cells/ml were seeded in 6-well flat-bottom tissue culture plates and were maintained for 48 h at 370 C in a 5% CO2 atmosphere.
(§4) PC-3, LNCAP and Du-145 human prostate cancer cells; MCF-7 human breast cancer cells; HT-1080 human fibrosarcoma cancer cells; B16F1 murine melanoma cells; and, UMUC-3, RT-4, HT-1376 and T-24 human bladder cancer cells were incubated with 0.8, 8.0 and 80 μg/ml of 5.0-7.5 x 10^5 Da HA (Table 2).
(§5) Unless stated otherwise 2.0 x 10^4 cells/ml were seeded in 24-well plates and were maintained for 48 h at 370 C in a 5% CO2 atmosphere. MTT was used at 50 μl per well.
(§6) T-24 human bladder cancer cells, PC-3 and Du-145 human prostate cancer cells, and MCF-7 human breast cancer cell were incubated with saline or with 80.0 jg/ml of 5.0-7.5 x 105 Da HA +1.0 μg/ml of M-DNA (Table 4).
MTT was used at 50 µl per well.
Example 8 s HA potentiation of the anti-neoplastic effect ofchemotherapeutic drugs RT-4 human bladder cancer cells and MCF-7 human breast cancer cells were incubated as in Example 6 with 0.0, 0.008 or 0.08 pg/ml of 5.0-7.5 x 10^5 Da HA +0.1 jg/ml of CIS, +1.0 jg/ml of 5-FU or +10 jig/ml of 5-FU (Table 7).
(§7) CD44 expression and the inhibition of proliferation by 5.0-7.5 x 10^5 Da HA were measured using Jurkat T cell leukemia cells; MCF-7 human breast cancer cells; RT-4, T-24, HT-1376 and UMUC-3 human bladder cancer cells; and, PC-3, Du-145 and LNCaP prostate cancer cells (Table 8)

[5] = tested on: RT-4 human bladder cancer cells; assay: MTT cell proliferation, RT-4; type: cell-based
Protocol: Cell proliferation was measured using dimethylthiazoldiphenyltetrazolium (MTT) reduction (Mosman et al. J. Immunol. Methods 65:55, 1983). Unless otherwise stated, 100 Al of 5 mg of MTT (Sigma-Aldrich, St. Louis, Mo., USA) dissolved in 1 ml of PBS was added into each well. After 4 h, medium was removed from each well, 1.0 ml of acid-isopropanol (0.04 N HCI in isopropanol) was added and reduced MTT was solubilized by mixing. Absorbency of the reaction product was measured at a wavelength of 570 nm using a multiplate spectrophotometer reader (Elx800 Model, Bio-TEK Instruments Inc., Winooski, Vt., USA). […] PC-3, LNCAP and Du-145 human prostate cancer cells; MCF-7 human breast cancer cells; HT-1080 human fibrosarcoma cancer cells; B16F1 murine melanoma cells; and, UMUC-3, RT-4, HT-1376 and T-24 human bladder cancer cells were incubated with 0.8, 8.0 and 80 μg/ml of 5.0-7.5 x 10^5 Da HA (Table 2). […] MTT was used at 50 μl per well. HT-1376, RT-4 and T-24 human bladder cancer cells were incubated with 0.8 pg/ml of 5.0-7.5 x 10^5 Da HA +1.0 ug/ml of MCC (Table 5). […] MCF-7 human breast cancer cells; RT-4, T-24, HT-1376 and UMUC-3 human bladder cancer cells; and, PC-3, Du-145 and LNCaP prostate cancer cells (Table 8)

[6] = tested on: MCF-7 human breast cancer cells; assay: MTT cell proliferation, MCF-7; type: cell-based; settings: MCF-7 (2.5 X 10^5 cells/ml); oligonucleotide 100 μg/ml alone (HA 0.0 μg/ml)
[7] = tested on: PC-3 human prostate cancer cells; assay: MTT cell proliferation, PC-3; type: cell-based; settings: 48 h
Protocol: as §2, §3, §4
(§8) PC-3. LNCaP and Du-145 human prostate cancer cells were incubated with 8.0 jg/ml of 5.0-7.5 x 105 Da HA or of <1.5 x 10^4 Da HA (Table 3).
as §5, §6, §7

[8] = tested on: LNCaP human prostate cancer cells; assay: MTT cell proliferation, LNCaP; type: cell-based; settings: 48 h
Protocol: as §2, §3, §4, §8, §7

[9] = tested on: Du-145 human prostate cancer cells; assay: MTT cell proliferation, Du-145; type: cell-based; settings: HA 8.0 μg/ml, 48 h
Protocol: as §2, §3, §4, §8, §5, §6, §7

B16F1 tumors [10] = assay: Example 13: HA, M-DNA, MCC on B16F1 tumors in mice; type: in vivo, female C57BL/6 mice; settings: vs Group 1 (saline); intratumorally day 0 and at 3 day intervals for 4 weeks; HA 0.16-16.0 mg/kg, M-DNA or MCC 0.02-2.0 mg/kg
Protocol: Example 13 Effect of saline, HA, M-DNA, MCC, HA+M-DNA and HA +MCC on B16F1 tumors in mice B16F I cancer cells are implanted […] into 224 female C57BL/6 mice. The mice are divided into 28 groups of 8 mice (Table 13).
Saline, HA, M-DNA, MCC, HA+M-DNA and HA+MCC are administered intratumorally in saline on day 0 and at 3 day intervals for 4 weeks (10 injections) at which time the mice are sacrificed and tumor mass and number of metastases are determined.

[11] = tested on: rectal, gastric, breast, prostate and endometrial cancers; settings: HA >750 mg/kg administered with various other therapeutic agents over various periods of time; cited from earlier work
colon-26 cancer cells = settings: HA alone; colon-26 cells express high levels of HA receptors; cited from earlier work
LNCaP tumors (CD44 null) [12] = assay: Example 12: HA, M-DNA, MCC on LNCaP tumors in mice; type: in vivo, male nude BALB/c mice; settings: vs Group 1 (saline); intravenously day 0 and at 3-day intervals for 4 weeks; HA 0.16-16.0 mg/kg, M-DNA or MCC 0.02-2.0 mg/kg
Protocol: Effect of saline, HA, M-DNA, MCC, HA+M-DNA and HA +MCC on LNCaP tumors in mice LNCaP human prostate cancer cells (CD44 null) are implanted subcutaneously into 224 male nude BALB/c mice. The mice are divided into 28 groups of 8 mice (Table 12).
(§9) Saline, HA, M-DNA, MCC, HA+M-DNA and HA+MCC are administered intravenously on day 0 and at 3-day intervals for 4 weeks (10 injections) at which time the mice are sacrificed and tumor mass and number of metastases are determined.

PC3 tumors [13] = assay: Example 11: HA, M-DNA, MCC on PC3 tumors in mice; type: in vivo, male nude BALB/c mice; settings: vs Group 1 (saline); intravenously day 0 and at 3-day intervals for 4 weeks; HA 0.16-16.0 mg/kg, M-DNA or MCC 0.02-2.0 mg/kg
Protocol: PC-3 human prostate cancer cells are implanted subcutaneously into 224 male nude BALB/c mice. The mice are divided into 28 groups of 8 mice (Table 11).
as §9

[14] = tested on: B16F10 murine melanoma tumor; settings: HA 1 mg/ml over 7 days by Alzet osmotic pump into the immediate vicinity of the tumor; cited from earlier work
[15] = target: CD44 cell surface HA receptor (human) (UniProt P16070); assay: flow cytometry, FITC-CD44 on RT-4 human bladder cancer cells (unstained cells: 4)
[16] = target: CD44 cell surface HA receptor (human) (UniProt P16070); assay: flow cytometry, FITC-CD44 on Du-145 human prostate cancer cells (unstained cells: 3)
[17] = target: CD44 cell surface HA receptor (human) (UniProt P16070); assay: flow cytometry, FITC-CD44 on MCF-7 human breast cancer cells (unstained cells: 3)
[18] = target: CD44 cell surface HA receptor (human) (UniProt P16070); assay: flow cytometry, FITC-CD44 on HT-1376 human bladder cancer cells (unstained cells: 4)
[19] = target: CD44 cell surface HA receptor (human) (UniProt P16070); assay: flow cytometry, FITC-CD44 on T-24 human bladder cancer cells (unstained cells: 3)
[20] = target: CD44 cell surface HA receptor (human) (UniProt P16070); assay: flow cytometry, FITC-CD44 on UMUC-3 human bladder cancer cells (unstained cells: 3)
[21] = target: CD44 cell surface HA receptor (human) (UniProt P16070); assay: flow cytometry, FITC-CD44 on PC-3 human prostate cancer cells (unstained cells: 6)

Chain of UniProt P16070 (P16070 21-742): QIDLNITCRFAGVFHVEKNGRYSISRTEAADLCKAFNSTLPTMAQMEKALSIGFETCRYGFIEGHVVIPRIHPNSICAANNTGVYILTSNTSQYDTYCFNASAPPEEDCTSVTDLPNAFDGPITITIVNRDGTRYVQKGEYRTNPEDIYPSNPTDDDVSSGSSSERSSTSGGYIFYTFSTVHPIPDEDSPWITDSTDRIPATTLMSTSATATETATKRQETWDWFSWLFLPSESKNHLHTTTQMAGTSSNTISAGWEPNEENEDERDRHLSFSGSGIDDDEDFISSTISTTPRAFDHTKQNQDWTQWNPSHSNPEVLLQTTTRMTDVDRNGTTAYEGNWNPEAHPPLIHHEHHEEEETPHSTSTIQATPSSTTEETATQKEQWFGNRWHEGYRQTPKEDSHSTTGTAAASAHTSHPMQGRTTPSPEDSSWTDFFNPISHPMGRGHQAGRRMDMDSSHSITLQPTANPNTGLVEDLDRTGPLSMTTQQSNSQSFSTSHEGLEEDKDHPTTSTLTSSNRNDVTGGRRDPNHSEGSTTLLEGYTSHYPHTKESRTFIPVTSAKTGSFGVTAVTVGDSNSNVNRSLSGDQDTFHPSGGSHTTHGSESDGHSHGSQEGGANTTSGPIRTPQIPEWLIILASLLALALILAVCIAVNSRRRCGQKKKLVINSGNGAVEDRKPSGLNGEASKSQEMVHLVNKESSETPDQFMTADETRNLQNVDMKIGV

## O=c1[nH]cc(F)c(=O)[nH]1 [5-FU, 5-fluorouracil]
B16F1 tumors [1]
  number of metastases: fewer metastases
  tumor mass: less tumor mass
PC3 tumors [2]
  number of metastases: fewer metastases
  tumor mass: less tumor mass
LNCaP tumors (CD44 null) [3]
  number of metastasis: fewer metastases
  tumor mass: less tumor mass
[4]
  inhibition at 10 µg/mL: 18%
[5]; Homo sapiens, 5-FU at 1.0 μg/ml alone (saline instead of HA)
  inhibition at 1 µg/mL: 14%

## N.N.[Cl][Pt][Cl] [CIS, cisplatin]
B16F1 tumors [1]
  number of metastases: fewer metastases
  tumor mass: less tumor mass
PC3 tumors [2]
  number of metastases: fewer metastases
  tumor mass: less tumor mass
LNCaP tumors (CD44 null) [3]
  number of metastasis: fewer metastases
  tumor mass: less tumor mass
[5]; CIS at 0.1 μg/ml alone (saline instead of HA)
  % INHIBITION of cell proliferation: 2%

## (G1T)13G: synthetic 27 base oligonucleotide (GTGTGTGTGTGTGTGTGTGTGTGTGTG; listed as DNA, chemistry not given here)
[6]
  % INHIBITION of cell proliferation: 44%

## GG(GT)1GG: synthetic 6 base oligonucleotide
[6]
  % INHIBITION of cell proliferation: 20%

## Hyaluronic acid [<1.5 × 10^4 Da HA]
[7]; HA 8.0 μg/ml
  % INHIBITION of cell proliferation: 5%
[8]; HA 8.0 μg/ml
  % INHIBITION of cell proliferation: 24%
[9]
  % INHIBITION of cell proliferation: 37%

## Hyaluronic acid [HA]
B16F1 tumors [1]
  number of metastases: fewer metastases
  tumor mass: less tumor mass
B16F1 tumors [10]
  number of metastases: fewer metastases
  tumor mass: less tumor mass
[7]; HA 80.0 μg/ml
  % INHIBITION of cell proliferation: 30%
PC3 tumors [2]
  number of metastases: fewer metastases
  tumor mass: less tumor mass
[11]
  effect on cancers: reduced or eliminated
colon-26 cancer cells
  growth of cancer cells: significantly inhibits the growth
LNCaP tumors (CD44 null) [3]
  number of metastasis: fewer metastases
  tumor mass: less tumor mass
LNCaP tumors (CD44 null) [12]
  number of metastases: fewer metastases
  tumor mass: less tumor mass
PC3 tumors [13]
  number of metastases: fewer metastases
  tumor mass: less tumor mass
[8]; HA 80.0 μg/ml
  % INHIBITION of cell proliferation: 26%
[14]
  reduced tumor volume: > 85%

## fluorescent anti-HA receptor monoclonal antibody FITC-CD44 (clone G44-26 (C26), Pharmingen)
[15]
  mean fluorescent units (mean fluorescent units): 60
[16]
  mean fluorescent units (mean fluorescent units): 450
[17]
  mean fluorescent units (mean fluorescent units): 70
[18]
  mean fluorescent units (mean fluorescent units): 200
[19]
  mean fluorescent units (mean fluorescent units): 1800
[20]
  mean fluorescent units (mean fluorescent units): 1800
[21]
  mean fluorescent units (mean fluorescent units): 400
